Patent publication US6596773B2, “Phenyl substituted pyridine and benzene derivatives” (Hoffmann-La Roche Inc., priority 1999, dated 2003)

Target: T1, human NK1 receptor (Homo sapiens, UniProt P25103)
T1 construct: expressed in transfected cells; host or cells: CHO cells infected using the Semliki virus expression system; membrane suspension
Test: NK1 receptor binding assay, displacement of [3H]substance P
Settings: human NK1 receptors in CHO cells (Semliki virus expression system), [3H]substance P 0.6 nM, 60 min at room temperature; read-out: affinity to the NK-1 receptor, given as pKi (converted)
Method: The affinity of test compounds for the NK1 receptor was evaluated at human NK1 receptors in CHO cells infected with the human NK1 receptor (using the Semliki virus expression system) and radiolabelled with [3H]substance P (final concentration 0.6 nM). Binding assays were performed in HEPES buffer (50 mM, pH 7.4) containing BSA (0.04%) leupeptin ([…]), MnCl2 (3 mM) and phosphoramidon ([…]). Binding assays consisted of […] of membrane suspension (1.25×10^5 cells/assay tube), 0.125 ml of buffer of displacing agent and […] of [3H]substance P. Displacement curves were determined with at least seven concentrations of the compound. The assay tubes were incubated for 60 min at room temperature after which time the tube contents were rapidly filtered under vacuum through GF/C filters presoaked for 60 min with PEI (0.3%) with 2×2 ml washed of HEPES buffer (50 mM, pH 7.4). The radioactivity retained on the filters was measured by scintillation counting. All assays were performed in triplicate in at least 2 separate experiments.

T1 sequence (P25103 whole entry): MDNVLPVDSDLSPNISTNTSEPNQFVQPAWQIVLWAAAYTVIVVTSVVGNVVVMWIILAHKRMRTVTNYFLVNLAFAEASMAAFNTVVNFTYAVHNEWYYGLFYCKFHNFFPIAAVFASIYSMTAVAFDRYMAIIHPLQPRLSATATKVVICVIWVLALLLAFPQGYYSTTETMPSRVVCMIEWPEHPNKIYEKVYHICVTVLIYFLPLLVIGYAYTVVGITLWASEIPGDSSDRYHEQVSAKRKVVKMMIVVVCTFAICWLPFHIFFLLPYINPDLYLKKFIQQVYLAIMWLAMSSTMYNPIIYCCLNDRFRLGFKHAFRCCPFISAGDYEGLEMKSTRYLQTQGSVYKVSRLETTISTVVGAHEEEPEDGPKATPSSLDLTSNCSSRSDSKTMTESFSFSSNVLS

Compound | Ki
Cc1ccccc1Oc1cc(N2CCOCC2)ncc1C(=O)N(C)Cc1cc(C(F)(F)F)cc(C(F)(F)F)c1 [Example 31, N-(3,5-Bis-trifluoromethyl-benzyl)-N-methyl-6-morpholin-4-yl-4-o-tolyloxy-nicotinamide] | 2.75 nM
CN(Cc1cc(C(F)(F)F)cc(C(F)(F)F)c1)C(=O)c1cnc(N2CCOCC2)cc1Oc1ccccc1 [Example 28, N-(3,5-Bis-trifluoromethyl-benzyl)-N-methyl-6-morpholin-4-yl-4-phenoxy-nicotinamide] | 13.8 nM
CN(Cc1cc(C(F)(F)F)cc(C(F)(F)F)c1)C(=O)c1cnc(N2CCOCC2)cc1Oc1ccccc1Cl [Example 29, N-(3,5-Bis-trifluoromethyl-benzyl)-4-(2-chloro-phenoxy)-N-methyl-6-morpholin-4-yl-nicotinamide] | 1.74 nM
CN1CCN(c2cc(Oc3ccccc3Cl)c(C(=O)N(C)Cc3cc(C(F)(F)F)cc(C(F)(F)F)c3)cn2)CC1 [Example 30, N-(3,5-Bis-trifluoromethyl-benzyl)-4-(2-chloro-phenoxy)-N-methyl-6-(4-methyl-piperazin-1-yl)-nicotinamide] | 3.8 nM

Tested on: not given
Test: not given
Settings: not given

Compound | melting point
CN1CCN(c2cc(C(=O)c3ccccc3Cl)c(C(=O)N(C)Cc3cc(C(F)(F)F)cc(C(F)(F)F)c3)cn2)CC1.Cl | 145 °C (dec.)
CN1CCN(c2cc(C(=O)c3ccccc3)c(C(=O)N(C)Cc3cc(C(F)(F)F)cc(C(F)(F)F)c3)cn2)CC1.Cl | 105 °C (dec.)
CN(C(=O)C(C)(C)c1cc(C(F)(F)F)cc(C(F)(F)F)c1)c1ccc(Cl)cc1C(=O)c1ccccc1 [Example 2, N-(2-Benzoyl-4-chloro-phenyl)-2-(3,5-bis-trifluoromethyl-phenyl)-N-methyl-isobutyramide] | 89 to 91 °C
